# Experimental data: patent US5281602A, “Angiotensin II receptor blocking 2,3,6-substituted 5,6,7,8-tetrahydro-pyrido[4,3-D]pyrimidin-4(3H)-ones” (American Cyanamid Company, priority 1993, dated 1994)
# Values joined by “and” are separate entries in the source; they are usually repeats but may differ in a detail not shown here. Equal values may be shown once.
# Legend:
# [1] = molecular target: Angiotension II Receptor; experiment: Receptor Binding Assay: competition with [^125 I] (Sar^1,Ile^8) AngII on microsomal membranes; conditions: pH 7.4, 60 min, room temperature
# Method: Binding of [^125 I] (Sar^1,Ile^8) AngII
# The binding of [^125 I] (Sar^1,Ile^8) AngII to microsomal membranes is initiated by the addition of reconstituted membranes (1:10 vols.) in freshly made 50.0 mMTris.HCl buffer, pH 7.4 containing 0.25% heat inactivated bovine serum albumin (BSA):80 ul membrane protein (10 to 20 ug/assay) to wells already containing 100 ul of incubation buffer (as described above) and 20 ul [^125 I] (Sar^1,Ile^8) AngII (Specific Activity, 2200 Ci/mmole). Non-specific binding is measured in the presence of 1.0 uM unlabeled (Sar^1,Ile^8) AngII, added in 20 ul volume. Specific binding for [^125 I] (Sar^1,Ile^8) AngII is greater than 90%. In competition studies, experimental compounds are diluted in dimethylsulfoxide (DMSO) and added in 20 ul to wells before the introduction of tissue membranes. This concentration of DMSO is found to have no negative effects on the binding of [^125 I] (Sar^1,Ile^8) AngII to the membranes. Assays are performed in triplicate. […] Presoaking the filter sheet in 0.1% polyethylenemine in normal saline (PEI/Saline) greatly reduces the radioactivity retained by the filter blanks. […] The filters are removed from the filter grid and counted in a Parkard® Cobra Gamma Counter for 1 min. […] The binding data are analyzed by the non-linear interactive "LUNDON-1" program (LUNDON SOFTWARE Inc., Cleveland, Ohio U.S.A.). […]
# [2] = system: ANGIOTENSIN II (A11) VASOPRESSOR RESPONSE; experiment: AII Challenge: blockade of angiotensin II vasopressor response in conscious SHR; type: in vivo, rat (Conscious Male Okamoto-Aoki SHR)
# Description: By administering a compound of this invention to a rat, and then challenging with angiotensin II, a blockage of the vasopressor response is realized.
# Conscious Male Okamoto-Aoki SHR, 16-20 weeks old, weighing approximately 330 g are purchased from Charles River Labs (Wilmington, Mass.). Conscious rats are restrained in a supine position with elastic tape. The area at the base of the tail is locally anesthetized by subcutaneous infiltration with 2% procaine. The ventral caudal artery and vein are isolated, and a cannula made of polyethylene (PE) 10-20 tubing (fused together by heat) is passed into the lower abdominal aorta and vena cava, respectively. The cannula is secured, heparinized (1,000 I.U./ml), sealed and the wound is closed. The animals are placed in plastic restraining cages in an upright position. The cannula is attached to a Statham P23Db pressure transducer, and pulsatile blood pressure is recorded to 10-15 minutes with a Gould Brush recorder. (Chan et al., (Drug Development Res., 18:75-94, 1989).
# Angiotensin II (human sequence, Sigma Chem. Co., St. Louis, Mo.) of 0.05 and 0.1 ug/kg i.v. is injected into all rats (predosing response). Then a test compound, vehicle or a known angiotensin II antagonist is administered i.v., i.p. or orally to each set of rats. […] The vasopressor response of angiotensin II is measured for the increase in systolic blood pressure in mmHg. The percentage of antagonism or blockade of the vasopressor response of angiotensin II by a compound is calculated using the vasopressor response (increase in systolic blood pressure) of angiotensin II of each rat predosing the compound as 100%. A compound is considered active if at 30 mg/kg i.v. it antagonized at least 50% of the response.
# [3] = 15 mg/kg IV, AII 0.05 mcg/kg IV, 30 min post dose
# [4] = 15 mg/kg IV, AII 0.05 mcg/kg IV, 60 min post dose
# [5] = 15 mg/kg IV, AII 0.05 mcg/kg IV, 90 min post dose
# [6] = 15 mg/kg IV, AII 0.1 mcg/kg IV, 30 min post dose
# [7] = 15 mg/kg IV, AII 0.1 mcg/kg IV, 60 min post dose
# [8] = 15 mg/kg IV, AII 0.1 mcg/kg IV, 90 min post dose
# [9] = under second '15 IV' line, AII 0.05 mcg/kg IV, 120 min
# [10] = under second '15 IV' line, AII 0.05 mcg/kg IV, 180 min
# [11] = under second '15 IV' line, AII 0.1 mcg/kg IV, 120 min
# [12] = under second '15 IV' line, AII 0.1 mcg/kg IV, 180 min
structure (smiles),measurement,setting,value
"CCCCc1nc2c(c(=O)n1Cc1ccc(-c3ccccc3-c3nnn[nH]3)cc1)CN(C(=O)OCc1ccccc1)CC2 [Example 7, Phenylmethyl 2-butyl-3,5,7,8-tetrahydro-4-oxo-3-[[2'-(1H-tetrazol-5-yl)[1,1' -biphenyl] -4-yl]methyl]pyrido[4,3-d]pyrimidin-6(4H)-carboxylate]",IC50,[1],660 nM
same,Average % Inhibition (angiotensin blockage) of AII vasopressor response,[2]; [3],71%
same,Average Change (systolic blood pressure response to AII),[2]; [3],11 mmHg
same,Average % Inhibition (angiotensin blockage) of AII vasopressor response,[2]; [4],33%
same,Average Change (systolic blood pressure response to AII),[2]; [4],25 mmHg
same,"Change (single reading, systolic blood pressure)","[2]; 15 mg/kg IV, AII 0.05 mcg/kg IV, 60 min post dose, 15 mg/kg",30 mmHg and 20 mmHg
same,Average % Inhibition (angiotensin blockage) of AII vasopressor response,[2]; [5],31%
same,Average Change (systolic blood pressure response to AII),[2]; [5],26 mmHg
same,"Change (single reading, systolic blood pressure)","[2]; 15 mg/kg IV, AII 0.05 mcg/kg IV, 90 min post dose, 15 mg/kg",30 mmHg and 22 mmHg
same,Average % Inhibition (angiotensin blockage) of AII vasopressor response,[2]; [6],59%
same,Average Change (systolic blood pressure response to AII),[2]; [6],17.5 mmHg
same,"Change (single reading, systolic blood pressure)","[2]; 15 mg/kg IV, AII 0.1 mcg/kg IV, 30 min post dose, 15 mg/kg",15 mmHg and 20 mmHg
same,Average % Inhibition (angiotensin blockage) of AII vasopressor response,[2]; [7],11%
same,Average Change (systolic blood pressure response to AII),[2]; [7],38 mmHg
same,"Change (single reading, systolic blood pressure)","[2]; 15 mg/kg IV, AII 0.1 mcg/kg IV, 60 min post dose, 15 mg/kg",40 mmHg and 36 mmHg
same,Average % Inhibition (angiotensin blockage) of AII vasopressor response,[2]; [8],0%
same,Average Change (systolic blood pressure response to AII),[2]; [8],42.5 mmHg
same,"Change (single reading, systolic blood pressure)","[2]; 15 mg/kg IV, AII 0.1 mcg/kg IV, 90 min post dose, 15 mg/kg",40 mmHg and 45 mmHg
same,Response After A11 (systolic blood pressure),"[2]; 15 mg/kg IV, after AII 0.05 mcg/kg IV, 30 min post dose, 15 mg/kg",192 mmHg and 175 mmHg
same,Response After A11 (systolic blood pressure),"[2]; 15 mg/kg IV, after AII 0.05 mcg/kg IV, 60 min post dose, 15 mg/kg",200 mmHg and 190 mmHg
same,Response After A11 (systolic blood pressure),"[2]; 15 mg/kg IV, after AII 0.05 mcg/kg IV, 90 min post dose, 15 mg/kg",200 mmHg and 182 mmHg
same,Response After A11 (systolic blood pressure),"[2]; 15 mg/kg IV, after AII 0.1 mcg/kg IV, 30 min post dose, 15 mg/kg",190 mmHg and 180 mmHg
same,Response After A11 (systolic blood pressure),"[2]; 15 mg/kg IV, after AII 0.1 mcg/kg IV, 60 min post dose, 15 mg/kg",215 mmHg and 206 mmHg
same,Response After A11 (systolic blood pressure),"[2]; 15 mg/kg IV, after AII 0.1 mcg/kg IV, 90 min post dose, 15 mg/kg",210 mmHg and 200 mmHg
same,Control Before A11 (systolic blood pressure),"[2]; 15 mg/kg IV, before AII 0.05 mcg/kg IV, 30 min post dose, 15 mg/kg",185 mmHg and 160 mmHg
same,Control Before A11 (systolic blood pressure),"[2]; 15 mg/kg IV, before AII 0.05 mcg/kg IV, 60 min post dose",170 mmHg
same,Control Before A11 (systolic blood pressure),"[2]; 15 mg/kg IV, before AII 0.05 mcg/kg IV, 90 min post dose, 15 mg/kg",170 mmHg and 160 mmHg
same,Control Before A11 (systolic blood pressure),"[2]; 15 mg/kg IV, before AII 0.1 mcg/kg IV, 30 min post dose, 15 mg/kg",175 mmHg and 160 mmHg
same,Control Before A11 (systolic blood pressure),"[2]; 15 mg/kg IV, before AII 0.1 mcg/kg IV, 60 min post dose, 15 mg/kg",175 mmHg and 170 mmHg
same,Control Before A11 (systolic blood pressure),"[2]; 15 mg/kg IV, before AII 0.1 mcg/kg IV, 90 min post dose, 15 mg/kg",170 mmHg and 155 mmHg
same,Average % Inhibition (angiotensin blockage) of AII vasopressor response,[2]; [9],87%
same,Average Change (systolic blood pressure response to AII),[2]; [9],5 mmHg
same,Average % Inhibition (angiotensin blockage) of AII vasopressor response,[2]; [10],33%
same,Average Change (systolic blood pressure response to AII),[2]; [10],25 mmHg
same,"Change (single reading, systolic blood pressure)",[2]; [10],25 mmHg
same,Average % Inhibition (angiotensin blockage) of AII vasopressor response,[2]; [11],81%
same,Average Change (systolic blood pressure response to AII),[2]; [11],8 mmHg
same,"Change (single reading, systolic blood pressure)",[2]; [11],6 mmHg and 10 mmHg
same,Average % Inhibition (angiotensin blockage) of AII vasopressor response,[2]; [12],32%
same,Average Change (systolic blood pressure response to AII),[2]; [12],29 mmHg
same,"Change (single reading, systolic blood pressure)",[2]; [12],38 mmHg and 20 mmHg
same,Response After A11 (systolic blood pressure),"[2]; under second '15 IV' line, after AII 0.05 mcg/kg IV, 120 min",195 mmHg and 185 mmHg
same,Response After A11 (systolic blood pressure),"[2]; under second '15 IV' line, after AII 0.05 mcg/kg IV, 180 min",200 mmHg and 160 mmHg
same,Response After A11 (systolic blood pressure),"[2]; under second '15 IV' line, after AII 0.1 mcg/kg IV, 120 min",176 mmHg and 180 mmHg
same,Response After A11 (systolic blood pressure),"[2]; under second '15 IV' line, after AII 0.1 mcg/kg IV, 180 min",215 mmHg and 160 mmHg
same,Control Before A11 (systolic blood pressure),"[2]; under second '15 IV' line, before AII 0.05 mcg/kg IV, 120 min",185 mmHg
same,Control Before A11 (systolic blood pressure),"[2]; under second '15 IV' line, before AII 0.05 mcg/kg IV, 180 min",175 mmHg and 135 mmHg
same,Control Before A11 (systolic blood pressure),"[2]; under second '15 IV' line, before AII 0.1 mcg/kg IV, 120 min",170 mmHg
same,Control Before A11 (systolic blood pressure),"[2]; under second '15 IV' line, before AII 0.1 mcg/kg IV, 180 min",177 mmHg and 140 mmHg
